Read-outs that look alike come from different tables or passages of the source.
Key:
[1] = target: T1, glucosylceramide synthase (Homo sapiens, UniProt Q16739); assay: microsomal assay measuring conversion of ceramide to glucosylceramide by HPLC (GCS IC50); assay type: biochemical; details: concentration causing 50% inhibition of glucosylceramide synthase activity
T1 construct: Microsomes were isolated from A375 human melanoma cells; endogenous in cells; host or cells: A375 human melanoma cells (microsomal fraction, 100,000 g pellet)
T1 sequence (Q16739 1-394): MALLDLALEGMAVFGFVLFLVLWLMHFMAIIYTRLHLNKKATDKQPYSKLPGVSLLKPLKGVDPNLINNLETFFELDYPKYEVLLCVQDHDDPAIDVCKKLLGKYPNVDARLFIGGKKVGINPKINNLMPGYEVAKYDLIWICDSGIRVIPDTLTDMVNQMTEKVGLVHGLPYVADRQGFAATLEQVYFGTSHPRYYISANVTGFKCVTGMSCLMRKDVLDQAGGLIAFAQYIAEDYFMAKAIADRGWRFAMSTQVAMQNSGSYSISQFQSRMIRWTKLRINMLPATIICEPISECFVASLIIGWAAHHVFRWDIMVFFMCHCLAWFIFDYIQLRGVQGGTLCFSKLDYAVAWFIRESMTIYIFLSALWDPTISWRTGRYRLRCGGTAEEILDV
How it was run: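 Microsomal preparation assayed for glucosylceramide synthase by direct HPLC measurement of ceramide conversion to glucosylceramide. GCS IC50 is the compound concentration giving 50% inhibition of enzyme activity.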

[2] = system: GM3 expression on the cell surface, B16 mouse melanoma cells; assay: cell based phenotypic assay, cell surface GM3 by antibody mediated immunofluorescence, B16 (GM3 B16 IC50); details: Mus musculus, 50% inhibition of GM3 expression on the cell surface
How it was run: (§1)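 B16 mouse and C32 human melanoma cells; cell-surface GM3 measured by antibody-mediated immunofluorescence, giving IC50.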

[3] = system: GM3 expression on the cell surface, C32 human melanoma cells; assay: cell based phenotypic assay, cell surface GM3 by antibody mediated immunofluorescence, C32 (GM3 C32 IC50); details: Homo sapiens, 50% inhibition of GM3 expression on the cell surface
How it was run: as §1

B16 mouse melanoma cells = assay: cell viability in the B16 cell-based assay (Viability, B16 IC50); details: Mus musculus
How it was run: (§2)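 Two melanoma lines, mouse B16 and human C32, were treated and surface GM3 quantified by antibody immunofluorescence for IC50. A parallel viability readout gives the concentration killing 50% of cells, with values over 10 indicating no cell death.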

C32 human melanoma cells = assay: cell viability in the C32 cell-based assay (Viability, C32 IC50); details: Homo sapiens, concentration causing 50% cell death, values greater than 10 represent a lack of cell death
How it was run: as §2

[4] = read-out: GM3 B16 IC50, B16 mouse melanoma cells
[5] = read-out: GM3 C32 IC50, C32 human melanoma cells
[6] = B16, read-out: Viability, B16 IC50
[7] = C32, read-out: Viability, C32 IC50, C32 cells
[8] = B16 mouse melanoma cells, read-out: GM3 B16 IC50
[9] = C32 human melanoma cells, read-out: GM3 C32 IC50
[10] = B16, B16 cells, concentration causing 50% cell death, values greater than 10 represent a lack of cell death, read-out: Viability, B16 IC50
[11] = C32, C32 cells, read-out: Viability, C32 IC50

Row | Compound | IC50 [1] | IC50 [2, 4] | IC50 [3, 5] | IC50 (B16 mouse melanoma cells; [6]) | IC50 (C32 human melanoma cells; [7]) | IC50 [2, 8] | IC50 [3, 9] | IC50 (B16 mouse melanoma cells; [10]) | IC50 (C32 human melanoma cells; [11])
1 | COCCOc1ccc(-c2cccc(C(C)(C)NC(=O)OC3CN4CCC3CC4)c2)nc1 (centres unmarked) [Example 309, Quinuclidin-3-yl 2-(3-(5-(2-methoxyethoxy)pyridin-2-yl)phenyl)propan-2-ylcarbamate] | 106 nM | 188 nM | 14 nM | ≥ 10000 nM | 3160 nM | – | – | – | –
2 | COCCOc1ccc(-c2ccc(C(C)(C)NC(=O)OC3CCN4CCC3CC4)cc2)nc1 (centres unmarked) [Example 310, 1-Azabicyclo[3.2.2]nonan-4-yl 2-(4-(5-(2-methoxyethoxy)pyridin-2-yl)phenyl)propan-2-ylcarbamate] | 123 nM | – | – | – | – | 145 nM | 12.1 nM | ≥ 10000 nM | 3160 nM
3 | COCCOc1ccc(-c2cccc(C(C)(C)NC(=O)OC3CCN4CCC3CC4)c2)nc1 (centres unmarked) [Example 311, 1-Azabicyclo[3.2.2]nonan-4-yl 2-(3-(5-(2-methoxyethoxy)pyridin-2-yl)phenyl)propan-2-ylcarbamate] | 76 nM | – | – | – | – | 103 nM | 8.5 nM | ≥ 10000 nM | 3160 nM
4 | COCCCOc1ccc(-c2cccc(C(C)(C)NC(=O)OC3CN4CCC3CC4)c2)nn1 (centres unmarked) [Example 312, Quinuclidin-3-yl (2-(3-(6-(3-methoxypropoxy)pyridazin-3-yl)phenyl)propan-2-yl)carbamate] | 1660 nM | 1340 nM | 103 nM | ≥ 10000 nM | 1000 nM | – | – | – | –
5 | COCCCOc1ccc(-c2cccc(C(C)(C)NC(=O)OC3CCN4CCC3CC4)c2)nn1 (centres unmarked) [Example 313, 1-Azabicyclo[3.2.2]nonan-4-yl (2-(3-(6-(3-methoxypropoxy)pyridazin-3-yl)phenyl)propan-2-yl)carbamate] | 88.9 nM | – | – | – | – | 470 nM | 10.7 nM | ≥ 10000 nM | ≥ 10000 nM
6 | COCCCOc1ccc(-c2cccc(C(C)(C)NC(=O)N3CCN4CCC3CC4)c2)nn1 [Example 314, N-(2-(3-(6-(3-Methoxypropoxy)pyridazin-3-yl)phenyl)propan-2-yl)-1,4-diazabicyclo[3.2.2]nonane-4-carboxamide] | 2630 nM | – | – | – | – | 4910 nM | 118 nM | ≥ 10000 nM | ≥ 10000 nM
7 | COCCCOc1cnc(-c2cccc(C(C)(C)NC(=O)OC3CN4CCC3CC4)c2)cn1 (centres unmarked) [Example 315, Quinuclidin-3-yl (2-(3-(5-(3-methoxypropoxy)pyrazin-2-yl)phenyl)propan-2-yl)carbamate] | 197 nM | 435 nM | 25.9 nM | ≥ 10000 nM | 1000 nM | – | – | – | –
8 | COCCCOc1cnc(-c2cccc(C(C)(C)NC(=O)OC3CCN4CCC3CC4)c2)cn1 (centres unmarked) [Example 316, 1-Azabicyclo[3.2.2]nonan-4-yl (2-(3-(5-(3-methoxypropoxy)pyrazin-2-yl)phenyl)propan-2-yl)carbamate] | 28 nM | – | – | – | – | 152 nM | 4.39 nM | ≥ 10000 nM | ≥ 10000 nM
9 | COCCCOc1cnc(-c2cccc(C(C)(C)NC(=O)N3CCN4CCC3CC4)c2)cn1 [Example 317, N-(2-(3-(5-(3-Methoxypropoxy)pyrazin-2-yl)phenyl)propan-2-yl)-1,4-diazabicyclo[3.2.2]nonane-4-carboxamide] | 295 nM | – | – | – | – | 656 nM | 29.1 nM | ≥ 10000 nM | 1000 nM
10 | CCOc1ccc(-c2cccc(C(C)(C)NC(=O)OC3CCN4CCC3CC4)c2)nn1 (centres unmarked) [Example 319, 1-Azabicyclo[3.2.2]nonan-4-yl (2-(3-(6-ethoxypyridazin-3-yl)phenyl)propan-2-yl)carbamate] | 75 nM | – | – | – | – | 121 nM | 8.04 nM | ≥ 10000 nM | ≥ 10000 nM
11 | COCCCOc1cnc(-c2ccc(C(C)(C)NC(=O)OC3CN4CCC3CC4)cc2)cn1 (centres unmarked) [Example 320, Quinuclidin-3-yl (2-(4-(5-(3-methoxypropoxy)pyrazin-2-yl)phenyl)propan-2-yl)carbamate] | 131 nM | 201 nM | 11.2 nM | ≥ 10000 nM | 1000 nM | – | – | – | –
12 | COCCCOc1cnc(-c2ccc(C(C)(C)NC(=O)OC3CCN4CCC3CC4)cc2)cn1 (centres unmarked) [Example 321, 1-Azabicyclo[3.2.2]nonan-4-yl (2-(4-(5-(3-methoxypropoxy)pyrazin-2-yl)phenyl)propan-2-yl)carbamate] | 46.1 nM | – | – | – | – | 108 nM | 6.39 nM | ≥ 10000 nM | 1000 nM
13 | COCCCOc1cnc(-c2ccc(C(C)(C)NC(=O)N3CCN4CCC3CC4)cc2)cn1 [Example 322, N-(2-(4-(5-(3-methoxypropoxy)pyrazin-2-yl)phenyl)propan-2-yl)-1,4-diazabicyclo[3.2.2]nonane-4-carboxamide] | 1070 nM | – | – | – | – | 1440 nM | 99.9 nM | ≥ 10000 nM | 1000 nM
14 | COCCCOc1cnc(-c2cccc(C(C)(C)NC(=O)OC3CN4CCC3CC4)c2)nc1 (centres unmarked) [Example 323, Quinuclidin-3-yl (2-(3-(5-(3-methoxypropoxy)pyrimidin-2-yl)phenyl)propan-2-yl)carbamate] | 1160 nM | 508 nM | 48.8 nM | ≥ 10000 nM | 1000 nM | – | – | – | –
15 | COCCCOc1cnc(-c2cccc(C(C)(C)NC(=O)OC3CCN4CCC3CC4)c2)nc1 (centres unmarked) [Example 324, 1-Azabicyclo[3.2.2]nonan-4-yl (2-(3-(5-(3-methoxypropoxy)pyrimidin-2-yl)phenyl)propan-2-yl)carbamate] | 96.9 nM | – | – | – | – | 157 nM | 8.49 nM | ≥ 10000 nM | 1000 nM
16 | CCC1(NC(=O)NC(C)(C)C#Cc2ccc(CCOC)cc2)CN2CCC1CC2 (centres unmarked) [Example 325, 1-(3-Ethylquinuclidin-3-yl)-3-(4-(4-(2-methoxyethyl)phenyl)-2-methylbut-3-yn-2-yl)urea] | 92 nM | – | – | – | – | 399 nM | 7.94 nM | ≥ 10000 nM | ≥ 10000 nM
17 | CCCC1(NC(=O)NC(C)(C)C#Cc2ccc(CCOC)cc2)CN2CCC1CC2 (centres unmarked) [Example 326, 1-(4-(4-(2-Methoxyethyl)phenyl)-2-methylbut-3-yn-2-yl)-3-(3-propylquinuclidin-3-yl)urea] | 26.6 nM | – | – | – | – | 123 nM | 4.29 nM | 3160 nM | 3160 nM
18 | CCC1(NC(=O)NC(C)(C)C#Cc2ccc(COC)cc2)CN2CCC1CC2 (centres unmarked) [Example 327, 1-(3-Ethylquinuclidin-3-yl)-3-(4-(4-(methoxymethyl)phenyl)-2-methylbut-3-yn-2-yl)urea] | 96.2 nM | – | – | – | – | 343 nM | 14.7 nM | ≥ 10000 nM | ≥ 10000 nM
19 | CCCC1(NC(=O)NC(C)(C)C#Cc2ccc(COC)cc2)CN2CCC1CC2 (centres unmarked) [Example 328, 1-(4-(4-(Methoxymethyl)phenyl)-2-methylbut-3-yn-2-yl)-3-(3-propylquinuclidin-3-yl)urea] | 25.1 nM | – | – | – | – | 115 nM | 3.32 nM | 3160 nM | 3160 nM
